Values after ≈ are worked out from the molar mass of the structure shown. Like-named read-outs stand apart in the source and are kept apart here.

Results on 10 molecules are retold here after US4906663A, “6-fluoroprostaglandins” (Asahi Glass Company, Ltd., priority 1987, dated 1990).

In test [1] the test system is platelet aggregation. In words: In vitro inhibition of ADP (1 μM)-induced platelet aggregation (turbidimetric method of Born, platelet-rich plasma). The test is classed as cell-based, guinea-pigs of Hartley strain. Particulars: guinea-pig PRP, preincubated 37° C. for 10 minutes; for IC50: Cavia porcellus, Platelet. How it is done: (§1) Platelet aggregation study was carried out by a tarbidimetric method of Born (G. V. R. Born; Nature, 194, 927, 1962) using an aggregometer. Citrated blood obtained from guinea-pigs of Hartley strain was centrifuged at 120 g for 10 minutes and the supernatant, Platelet-rich plasma (PRP), was separated. In in vitro experiments, PRP was preincubated with test compounds at 37° C. for 10 minutes and then aggregation was induced by adding ADP (1 μM). Extent of aggregation was estimated with maximum changes of light transmittance within 5 minutes after adding ADP. Inhibitory potencies of compounds were expressed with the concentration showing 50% inhibition of platelet aggregation (IC50). In ex vivo experiments, compounds were orally given to guinea-pigs. Blood was taken 5 hours after the administration of compounds, and platelet aggregation study was performed as described in in vitro experiments. Potencies of compnds was expressed with minimum dose showing significant inhibition (MED).

The subject of test [2] is platelet aggregation. In words: Ex vivo inhibition of ADP-induced platelet aggregation 5 hours after oral administration. Format: in vivo. Particulars: Cavia porcellus, blood taken 5 hours after administration, guinea-pigs, read-out: Ex vivo MED (minimum dose showing significant inhibition of platelet aggregation). How it is done:
as §1

Test [3] relates to depression in amplitude of ST-segment on ECG (vasopressin). In words: Antianginal effect: vasopressin-induced depression in amplitude of ST-segment on ECG. The test is classed as in vivo, male rats of Donryu strain. Particulars: Rattus norvegicus, anesthetized rats. Here is the method:
Antianginal effect of compounds was evaluated in male rats of Donryu strain according to Hatano et al. (N. Hatano et al.; Pharmacometrics, 19, 311, 1980) Vasopressin (0.2 IU/kg) was injected into femoral vein of anesthetized rats, and the depression in amplitude of ST-segment on ECG was measured at 30 second-intervals for 5 minutes after the vasopressin injection. Test compounds were intravenously injected 2 minutes before or orally given 30 minutes before the vasopressin injection. Data were analysed with two dimension analysis between the control and treated groups, and potencies of the compounds were expressed by MED.

For test [4], the system named is gastric ulcer (HCl-ethanol induced). In words: Inhibitory effect on gastric ulcer induced by HCl-ethanol (lesion index). The test is classed as in vivo, rats (male, Wister strain). Conditions: Rattus norvegicus; oral, 30 minutes before 0.4N HCl-50% ethanol (1 ml); over night-fasted rats; read-out: ED50 (dose required for 50% inhibition of lesion index). How it is done: Gastric ulcer was induced by an oral administration of 0.4N HCl-50% ethanol (1 ml) to over night-fasted rats (male, Wister strain). One hour after HCl-ethanol administration, rats were sacrificed and their stomachs were isolated. Isolated stomachs were inflated with saline and fixed with 5% formalin. After fixation, the stomach was cut open along greater curvature and maximum length of each lesion was measured. The sum of lesion length was defined as the lesion index. Compounds were given orally 30 minutes before administration of HCl-ethanol. Potencies of compounds were expressed with ED50, the dose required for 50% inhibition of lesion index.

Setting [5] is: iv, I.V., 2 minutes before vasopressin 0.2 IU/kg, read-out: I.V. MED (antianginal effect).
Where [6] appears, read: po, P.O., 30 minutes before vasopressin 0.2 IU/kg, read-out: P.O. MED (antianginal effect).

`CCCCCC(O)C=CC1C(O)CC(=O)C1CC(F)CCCCC(=O)O` (single isomer, unassigned; ent-6) [APG - 23, 8-ent-6-fluoro-PGE1]: the “In Vitro IC50 (platelet aggregation)” value in the test with platelet aggregation [1] was found to be 0.0145 µg/mL.

As a reminder, the IC50 is the concentration that gives 50% inhibition. A low value points to inhibition by little substance. `CCCC[C@H](C)C[C@H](O)/C=C/[C@H]1[C@H](O)CC(=O)[C@H]1CC(F)CCCCC(=O)O` (single isomer, unassigned; ent-17) [APG - 25] returned a concentration for half-maximal inhibition (IC50) in the test with platelet aggregation [1] of 0.0127 µg/mL (≈ 0.0317 µM). The minimal effective dose in the test with platelet aggregation [2] is 3000 µg/kg; in test [3] (setting [5]), 1 µg/kg; in test [3] (setting [6]), 0.1 µg/kg.

The molecule `CCCCC[C@H](O)/C=C/[C@H]1[C@H](O)CC(=O)[C@@H]1/C=C(/F)CCCCC(=O)O` [APG - 2, (6E)-Δ^6-6-fluoro-PGE1] registered an IC50 in the test on platelet aggregation [1] of 0.52 µg/mL (≈ 1.4 µM).

Take `CCCCC[C@H](O)/C=C/[C@H]1[C@H](O)CC(=O)[C@@H]1C/C(F)=C\CCCC(=O)O` [APG - 5, 6-fluoro-PGE2]: the IC50 in the test with platelet aggregation [1] is 0.49 µg/mL (≈ 1.32 µM).

With `CCCCC[C@H](O)/C=C/[C@H]1[C@H](O)CC(=O)[C@@H]1C/C(F)=C\CCCC(=O)OC` [APG - 7, 6-fluoro-PGE2 methyl ester], in the test with platelet aggregation [1], the IC50 was 0.655 µg/mL (≈ 1.7 µM).

On to `CCCCC[C@H](O)/C=C/[C@H]1[C@H](O)CC(=O)[C@@H]1CC(F)CCCCC(=O)O` (stereo partly drawn) [APG - 21, 6-fluoro-PGE1], for which, in the test with platelet aggregation [1], the 50% inhibitory concentration (IC50) came out at 0.1 µg/mL (≈ 0.268 µM).

In the test on platelet aggregation [1], `CCCC[C@H](C)C[C@H](O)/C=C/[C@H]1[C@H](O)CC(=O)[C@@H]1CC(F)CCCCC(=O)O` (stereo partly drawn) [APG - 24, (17S)-17,20-dimethyl-6-fluoro-PGE1] registered a half-maximal inhibitory concentration (IC50) of 0.0059 µg/mL (≈ 0.0147 µM). Besides, the results for the minimal effective dose (with platelet aggregation [2]; in test [3] (setting [5]); in test [3] (setting [6])) were 300 µg/kg, 10 µg/kg and 0.1 µg/kg, respectively.

One may read the ED50 as the midpoint of the dose-response relation. In turn, `CCCC[C@H](C)C[C@H](O)/C=C/[C@H]1[C@H](O)CC(=O)[C@@H]1C/C(F)=C\CCCC(=O)O` [APG - 27, (17S)-17,20-dimethyl-6-fluoro-PGE2] registered a half-inhibitory concentration (IC50) in the test with platelet aggregation [1] of 0.0427 µg/mL (≈ 0.107 µM). In addition, the ED50 in test [4] amounted to 3.4 µg/kg.

For `CCCC[C@H](C)C[C@H](O)/C=C/[C@H]1[C@H](O)CC(=O)[C@@H]1CC(F)CC/C=C/C(=O)O` (stereo partly drawn) [APG - 29, Δ^2-(17S)-17,20-dimethyl-6-fluoro-PGE1], the IC50 in the test with platelet aggregation [1] worked out at 0.00233 µg/mL (≈ 0.00585 µM). Further, the minimal effective dose in the test with platelet aggregation [2] came out at 100 µg/kg; in test [3] (setting [6]) it was 0.1 µg/kg. The ED50 in test [4] is 1.8 µg/kg.

Molecule `CCCC[C@H](C)C[C@H](O)/C=C/[C@H]1[C@H](O)CC(=O)[C@H]1CC(F)CC/C=C/C(=O)O` (stereo partly drawn) [APG - 30, (17S)-8-ent-Δ^2-17,20-dimethyl-6-fuoro-PGE1] showed an IC50 with platelet aggregation [1] of 0.00105 µg/mL (≈ 0.00263 µM). The minimal effective dose in the test with platelet aggregation [2] was found to be 1000 µg/kg.
